System: HeLa rtTA HIV∆Mls cells
Test: Trypan blue exclusion, HeLa
Format: cell-based
Conditions: up to 10 µM
Experimental: Effects of compound treatment on cellular metabolism was assessed by an XTT-based in vitro toxicology assay kit (Sigma-Aldrich) or Trypan blue exclusion (Life Technologies) as proxy for degree of cytotoxicity and expressed relative to DMSO control treatment. For measurement of cell viability using XTT, culture media was removed after 24, 72, and 96 h of compound treatment, replaced with 20% XTT solution and incubated at 37 °C in a 5% CO2 humidified incubator for 2–6 h, and relative cell viability was measured in compound treated cells relative to DMSO-treated cells. Cell viability measurements in CEM-GXR cells are described above.

**Q.** How did the Trypan blue exclusion turn out when `O=C(NC(=S)NNC(=O)c1ccccc1O)c1ccc(-c2ccccc2)cc1` [Compound 833, N-([2-(2-hydroxybenzoyl)hydrazino]carbonothioyl}-4-biphenylcarboxamide] was run?
**A.** no change
